Experiments:
anti-HAV-negative sera = experiment: EIA for anti-HAV: synthetic peptides reacted with anti-HAV-negative sera; format: binding, human; conditions: experiment 1: sera 1:100, cutoff P/N 3.0
Excerpt: (§1) All anti-HAV-positive and anti-HAV-negative sera were randomly selected from a collection reposited at the Centers for Disease Control and Prevention, Atlanta, Ga. Serum specimens were collected from anti-HAV-positive patients with acute liver disease. Anti-HAV-negative serum specimens were collected from normal blood donors. All sera were initially tested by commercially available kit for the presence of anti-HAV activity (HAVAB and HAVAB-M, Abbott Laboratories, Abbott Park, Ill.)
(§2) Synthetic peptides (110 ml) at a concentration of 10 mg/ml in 0.1 M phosphate-buffered saline (PBS), pH 7.5, were adsorbed to microtiter wells (Immulon II, Dynatech Laboratories, Inc.) at room temperature for 12 h. Sera were diluted in PBS containing 0.1% Tween 20 and 10% normal goat serum (PBS-T) and 100 ml were added to each well, incubated for 60 min at 37E C, and washed with PBS containing Tween-20. […] Two different cutoffs were established for experiments 1 and 2. In experiment 1, the cutoff, expressed as a P/N ratio and equal to 3.0, was statistically established as the mean of negative controls plus at least 3.5 standard deviations (SD) above the mean, where P represents the optical density value at 493 nm (OD493) of anti-HAV-positive specimens and N represents the optical density value of negative controls. In experiment 2, a different cutoff was used to ensure statistical reliability and accurate interpretation of positive results. In this case, in addition to anti-HAV-negative sera, two irrelevant synthetic peptides were used as supplemental negative controls to determine the degree of nonspecific binding of anti-HAV sera to synthetic peptides. One cutoff, expressed as a P/N ratio and equal to 3.0, corresponded to the mean of negative serum controls plus at least 3.5 SD above the mean. A second cutoff was also expressed as a P/N ratio, where P represents the optical density value at 493 nm (OD493) for HAV peptides immunoreacting with anti-HAV-positive specimens and N represents the optical density value obtained with the irrelevant peptides. The second cutoff was equal 2.0 and corresponded to the mean of OD values obtained with the irrelevant peptides plus at least 3.5 SD above the mean. Synthetic peptides were considered immunoreactive with anti-HAV serum specimens only when both cutoffs were satisfied.

anti-HAV-positive sera = experiment: EIA for anti-HAV: synthetic peptides adsorbed to wells, reacted with anti-HAV-positive acute sera; format: binding, human; conditions: for Reactivity with acute sera (reactive/tested): experiment 1: sera 1:100, anti-human IgG-HRP, cutoff P/N 3.0; for Reactivity with acute sera (percent of sera reactive): experiment 1: sera 1:100, cutoff P/N 3.0; for P/N for acute sera (mean) / P/N for acute sera (range, in parentheses): experiment 1, OD493 positive/negative ratio of reactive sera
Excerpt: as §1, §2

| Sequence | Reactivity with negative sera (reactive/tested) (anti-HAV-negative sera) | immunoreactivity with anti-HAV-positive sera (in words) (anti-HAV-positive sera) | Reactivity with acute sera (reactive/tested) (anti-HAV-positive sera) | Reactivity with acute sera (percent of sera reactive) (anti-HAV-positive sera) | P/N for acute sera (mean) (anti-HAV-positive sera) | P/N for acute sera (range, in parentheses) (anti-HAV-positive sera) | percent of (IgM) anti-HAV-positive sera immunoreactive with peptide (anti-HAV-positive sera) |
| --- | --- | --- | --- | --- | --- | --- | --- |
| QFPFNASDSVGQQIKVIPVD [YK-1241] | 0/46 | Very weakly reactive | 1/41 | 2.4% | 3.56 | – | – |
| QNVPDPQVGITTMKDLKGKA [YK-1266] | 0/48 | – | 14/46 | 30.4% | 8.25 | (3.27-18.30) | – |
| QRLKYAQEELSNEVLPPPRK [YK-1317] | 1/66 | – | 55/66 | 83.3% | 19.35 | (3.47-125.8) | – |
| RCEPVVCYLYGKRGGGKSLT [YK-1348] | 2/51 | – | 14/48 | 29.2% | 6.96 | (3.66-15.48) | 29.2% |
| RGKGEGLPGMCGGALVSSNQ [YK-1390] | 1/27 | – | 10/41 | 24.4% | 6.62 | (3.52-13.98) | – |
| RIMKVEFTQCSMNVVSKTLF [YK-1394] | 3/27 | – | 13/41 | 31.7% | 6.98 | (4.05-12.93) | – |
| RMYWGPAISYFHLNPGFHTG [YK-1414] | 0/27 | – | 1/41 | 2.4% | 3.35 | – | – |
| SDPSQGGGIKITHFTTWTSI [YK-1235] | 0/48 | – | 11/46 | 23.9% | 4.2 | (3.0-4.95) | – |
| SDSVGQQIKVIPVDPYFFQM [YK-1243] | 0/46 | Very weakly reactive | 1/41 | 2.4% | 3.47 | – | – |
| SEKTIWSLIAWQRSNAEFEQ [YK-1434] | 1/27 | – | 11/41 | 26.8% | 7.47 | (3.85-16.03) | – |
| SHIECRKPYKELRLEVGKQR [YK-1315] | 1/51 | – | 26/48 | 54.2% | 13.71 | (3.1-75.61) | – |
| SKTRAIDACPLDYSILCRMY [YK-1412] | 2/27 | – | 10/41 | 24.4% | 6.04 | (3.4-15.15) | – |
| SLIAWQRSNAEFEQNLENAQ [YK-1435] | 1/27 | – | 6/41 | 14.6% | 8.96 | (5.16-13.71) | – |
| SQGISDDDNDSAVAEFFQSF [YK-1368] | 1/27 | – | 26/41 | 63.4% | 9.58 | (4.27-19.82) | – |
| SVTEQSEFYFPRAPLNSNAM [YK-1308] | 0/51 | – | 1/48 | 2.1% | 3.32 | – | – |

— patent publication US6838237B2, “Antigenically reactive regions of the hepatitis a virus polyprotein” (The United States of America as represented by the …, priority 1996, dated 2005)
